Patent US20190136188A1, “4HPR AND ITS USE IN THE CULTURING OF HEMATOPOIETIC STEM CELLS” (UNIVERSITY HEALTH NETWORK, priority 2016, published 2019)

Legend:
Format in all cases: cell-based, human
[1] = tested on: HSPC subpopulations including HSC, MPP and GMP; experiment: BrdU incorporation (proliferation rate); conditions: 2 uM 4HPR, day 3 post-treatment
sorted HSC, MPP or GMP = experiment: Cell cycle analysis with Ki67 and Hoescht by flow cytometry; conditions: 2 uM 4HPR, day 2 or day 3
[2] = tested on: CD34+CD38- (stem) and CD34+CD38+ (prog) cells; experiment: LC3II immunofluorescence with and without Baflomycin A1 (autophagy); conditions: day 2, 2 uM 4HPR, in the presence of BAF; stem vs prog
Method: (§1) (A) Representative mmunofluorescence images taken by confocal microscopy for DAPI (blue) and LC3II staining (green) for CD34+CD38− cells (stem) following 2 days of treatment with DMSO control or 2 uM 4HPR with and without the autophagy inhibitor baflomycin A1 (BAF) to assay for basal autophagy and autophagic flux. (B) Quantitation of LC3II foci area as a percentage of total cell area for stem and prog (CD34+38+) cells from three independent CB using R and Image J software. (C) LCII foci area is increased with 4HPR treatment relative to control in the presence of BAF only in stem populations and not Prog populations. (D) Representative flow cytometry histogram plot of cyto-ID fluorescence intensity of control (black) and 4HPR (green) treated stem cells to assay for autophagic flux. Lower mean fluorescence intensity (MFI) indicates more turnover of autophagosomes and thus increased autophagic flux. […] (F) Cytokine withdrawal for 3 hours activates autophagic flux in CB stem cells to similar levels as 2 uM 4HPR as assayed by cyto-ID flow cytometry at day 2 post-treatment (n=3).
We hypothesize that such selective enhancement of CFC cloning efficiency with 4HPR treatment is a result of activating autophagy in HSC in human CB. Warr et all had previously shown that mouse HSC, but not comitted progenitors activate autophagy under stress stimuli. […]

[3] = tested on: CD34+CD38- (stem) and CD34+CD38+ (prog) cells; experiment: cyto-ID flow cytometry (autophagic flux); conditions: day 2
Method: as §1
(B). […] This difference in mitochondrial content is lost by day 3 post culture (See FIG. 3K).
We hypothesize that such selective enhancement of CFC cloning efficiency with 4HPR treatment is a result of activating autophagy in HSC in human CB. […]

CC1=C(/C=C/C(C)=C/C=C/C(C)=C/C(=O)Nc2ccc(O)cc2)C(C)(C)CCC1 [4HPR, N-(4hydroxyphenyl)retinamide]
proliferation rate by BrdU incorporation [1]: decreased proliferation rate | cell cycle transit (Ki67 and Hoescht) (sorted HSC, MPP or GMP): no significant difference between ctrl and 4HPR | LC3II foci area relative to ctrl (upregulation of autophagy) [2]: only 4HPR-treated stem cells, but not prog cells exhibit an upregulation of autophagy | autophagic flux by cyto-ID ([3]; 0.2 uM or 2 uM 4HPR vs vehicle, stem vs prog): only significantly induced in stem but not prog cells | autophagy activated by cytokine withdrawal (cytoID) ([3]; CB stem cells, 3 hour cytokine withdrawal): further enhanced in the presence of 4HPR
